Measured values published in ChEMBL document CHEMBL1133112, “Structure-function relationships in aminoquinolines: effect of amino and chloro groups on quinoline-hematin complex formation, inhibition of beta-hematin formation, and antiplasmodial activity” (J Med Chem, 2000).
The source made the active and inactive calls. The calls are words filed in the database; no cut-off is given here.

What was measured:
Plasmodium falciparum = test: In vitro antiplasmodial activity against Plasmodium falciparum D10; type: functional, organism-based
Ferriprotoporphyrin IX [1] = system: Ferriprotoporphyrin IX
Description: Association constant with ferriprotoporphyrin IX.

[2] = target: T1, Histidine-rich protein PFHRP-II (Plasmodium falciparum) (UniProt P05227)
T1 sequence (whole entry): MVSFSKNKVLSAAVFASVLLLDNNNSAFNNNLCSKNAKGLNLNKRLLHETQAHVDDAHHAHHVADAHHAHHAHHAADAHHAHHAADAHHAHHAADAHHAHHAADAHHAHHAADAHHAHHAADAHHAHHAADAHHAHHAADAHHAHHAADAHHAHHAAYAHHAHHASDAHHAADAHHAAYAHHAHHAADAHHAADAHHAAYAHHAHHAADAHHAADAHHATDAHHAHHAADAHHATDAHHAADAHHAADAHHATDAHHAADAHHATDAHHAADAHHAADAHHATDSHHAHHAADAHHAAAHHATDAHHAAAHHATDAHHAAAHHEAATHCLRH

Ferriprotoporphyrin IX [3] = test: LogK (Association constant) with ferriprotoporphyrin IX.

| Structure (SMILES) | IC50 (Plasmodium falciparum) | Log K (Ferriprotoporphyrin IX [1]) | NI [2] | Log K2 (Ferriprotoporphyrin IX [3]) |
| --- | --- | --- | --- | --- |
| Nc1cccc2ncccc12 | > 10 µM | < 2.5 | No inhibition | – |
| CNc1ccc2ccccc2n1 | > 10 µM | 4.26 | inactive | – |
| Clc1ccc2c(Cl)ccnc2c1 | > 10 µM | < 2.5 | No inhibition | – |
| Nc1cnc2ccccc2c1 | > 10 µM | < 2.5 | inactive | – |
| CC(=O)NCCNc1ccnc2ccccc12 | > 10 µM | 4.28 | No inhibition | – |
| c1ccc2ncccc2c1 [QUINOLINE] | > 10 µM | < 2.5 | inactive | – |
| NCCNc1ccc2ccccc2n1 | > 10 µM | 4.34 | No inhibition | – |
| Nc1cccc2cccnc12 [8-AMINOQUINOLINE] | > 10 µM | < 2.5 | No inhibition | – |
| Nc1ccc2ncccc2c1 | > 10 µM | < 2.5 | No inhibition | – |
| CNc1ccnc2ccccc12 | > 10 µM | 4.38 | No inhibition | – |
| CCN(CC)CCNc1ccnc2cc(Cl)ccc12 | 0.049 µM | 5.81 | – | 4.47 |
| OCCNc1ccnc2ccccc12 | > 10 µM | 4.18 | No inhibition | – |

Now from value to molecule, other results behind:

| IC50 (Plasmodium falciparum) | Log K (Ferriprotoporphyrin IX [1]) | NI [2] | Structure (SMILES) | Log K2 (Ferriprotoporphyrin IX [3]) |
| --- | --- | --- | --- | --- |
| > 10 µM | 4.49 | No inhibition | Nc1ccnc2ccccc12 [QUINOLIN-4-AMINE] | – |
| 0.799 µM | 4.75 | No inhibition | CCN(CC)CCNc1ccnc2ccccc12 | 3.2 |
| 5.07 µM | 4.66 | – | OCCNc1ccnc2cc(Cl)ccc12 | – |
| 3.8 µM | 4.43 | – | Nc1ccnc2cc(Cl)ccc12 | – |
| 4.7 µM | 4.59 | No inhibition | NCCNc1ccnc2ccccc12 | – |
| 4 µM | 4.48 | – | CNc1ccnc2cc(Cl)ccc12 | – |
| 0.092 µM | 4.93 | – | NCCNc1ccnc2cc(Cl)ccc12 | – |
| 0.0809 µM | 4.96 | – | CN(C)CCNc1ccnc2cc(Cl)ccc12 | – |
